Data on one molecule can be found in patent US20140128357A1, “METHODS OF PRODUCING AND USING BRASSINOSTEROIDS TO PROMOTE GROWTH, REPAIR AND MAINTENANCE OF SKELETAL MUSCLE AND SKIN” (Rutgers University, priority 2010, published 2014).

The nature of this assay: Body composition and blood biochemistry, rats on normal diet, 24 d oral HB (Protocol 1). The class given is in vivo, rat. As to conditions: for Bone mineral content / Fat mass / Lean mass / change in fat mass vs control / increase in lean body mass vs control: DEXA. The procedure:
Six-week-old male Wistar rats (180-220 g, Charles River Laboratories, MA) were housed in individual chambers in a room maintained at a constant room temperature with 12 h light-dark cycle. Animals had free access to food and water. Animals were allowed to adapt to new conditions for 7 d and handling the animals was carried out daily during this time to reduce the stress of physical manipulation. Animals were randomized into groups according to bodyweight 1 d prior to dosing.
The body weight of each animal and the total amount of food consumed (accounted for spillage) were recorded every 2 d for the duration of the experiment. At the end of the experiment, blood was collected by heart puncture after CO2 inhalation and animal body composition was assessed by DEXA dual-energy X-ray absorptiometry analysis using a Lunar Prodigy Densitometer (GE Healthcare, Waukesha, Wis.). At necropsy, tissue weights were recorded. Tissue samples were collected by snap-freezing in liquid nitrogen and stored at −80° C. for further studies. Total RNA was isolated using Trizol, its quantity and purity were determined using a NanoDrop (Nanodrop Technologies, Wilmington, Del.).
Blood samples were taken from overnight-fasted animals by heart puncture, collected in EDTA-coated tubes, centrifuged 1,500 g for 20 min, and separated plasma was stored at −80° C. until analysis. Glucose was measured in blood samples using a Lifescan glucometer (Johnson and Johnson, New Brunswick, N.J.). […] Plasma triglycerides and total cholesterol were measured by enzymatic colorimetric assays (Wako Diagnostics, Richmond, Va.). Total testosterone in plasma samples was quantified by an ELISA assay (DRG Diagnostics, Marburg, Germany).

Consider `CC[C@@H](C(C)C)[C@H](O)[C@@H](O)[C@@H](C)[C@H]1CC[C@H]2[C@@H]3COC(=O)[C@H]4C[C@H](O)[C@H](O)C[C@]4(C)[C@H]3CC[C@]12C` [Compound 1, (22S,23S,24S)-2α,3α,22,23-tetrahydroxy-24 ethyl-β-homo-7-oxo-5α-cholestane-6-one], for which, for the setting “20 mg/kg oral daily 24 d”, the Body weight is 324.3 ± 11.5 g, the Body weight gain is reported as 126.6 ± 7.1 g, the Gastrocnemius muscle stood at 2.07 ± 0.06 g and the “increase in gastrocnemius muscle mass” value turned out to be 15.6%. Where the note is “20 mg/kg oral daily 24 d”, the “increase of total body weight gain relative to initial body weight, compared with vehicle-treated controls” value came out at 18.3%; the Bone mineral content came out at 7.0 ± 0.3 g; the Fat mass is recorded as 49.0 ± 4.3 g; the Lean mass worked out at 268.3 ± 9.0 g. Where the note is “20 mg/kg oral daily 24 d”, the “change in fat mass vs control” value is listed as −3.9% and the “increase in lean body mass vs control” value was found to be 7.0%. Moreover, where the note is “60 mg/kg oral daily 24 d”, the Body weight turned out to be 342.3 ± 4.9 g, the Body weight gain was determined as 135.7 ± 9.4 g, the Gastrocnemius muscle is 2.13 ± 0.12 g and the “increase in gastrocnemius muscle mass” value was determined as 19.0%. In addition, under “60 mg/kg oral daily 24 d”, the “increase of total body weight gain relative to initial body weight, compared with vehicle-treated controls” value is given as 26.8%; the Bone mineral content was 7.4 ± 0.1 g; the Fat mass was found to be 48.5 ± 3.8 g; the Lean mass turned out to be 286.5 ± 4.3 g. Moreover, under “60 mg/kg oral daily 24 d”, the “change in fat mass vs control” value is recorded as −4.9% and the “increase in lean body mass vs control” value worked out at 14.2%.
